The values that follow come from patent US20240351986A1, “UREA COMPOUND CONTAINING 2-HETEROAROMATIC RING SUBSTITUTION, PREPARATION METHOD THEREFOR AND USE THEREOF” (SHANGHAI INSTITUTE OF MATERIA MEDICA, CHINESE ACADEMY OF …, priority 2021, published 2024).

This test addresses T1, Recombinant human CDK9/cyclin T1 (Homo sapiens, UniProt P50750).
T1 construct: purchased Carna bioscience 04-110
The test is described as follows: CDK9 enzyme inhibitory activity (ADP-Glo kinase assay). The test is classed as biochemical. To be noted: CDK9 enzyme activity, average of two independent repeats; for inhibition at 0.01 µM: read-out: Inhibition rate at different concentrations (%) 10 nM; for inhibition at 0.1 µM: read-out: Inhibition rate at different concentrations (%) 100 nM. How it is done:
Experimental method: Recombinant human CDK9/cyclin T1 (Carna bioscience, Cat #04-110) was diluted with dilution buffer (20 mM Tris HCl (pH 7.5), 0.02% Triton X-100, 0.01% BSA, 2 mM DTT, 0.5 mM Na3VO4, 10% Glycerol) to […], the substrates CDK7/9 tide (ThermoFisher, Cat #PV5090) and ATP (sigmaaldrich, Cat #A1852) were diluted with assay buffer (25 mM Tris HCl (pH7.5), 10 mM MgCl2, 0.5 mM EGTA (pH 8), 0.5 mM Na3VO4, 5 mMb-glycerol phosphate, 0.1% Triton X-100, 2.5 mM DTT) to final concentrations of 100 μM and […] respectively, aliquot and set aside. 2 μl of diluted recombinant human CDK9/cyclin T1, 1 μl of test compound, and 2 μl of diluted substrate CDK7/9 tide containing ATP were added to the 384-well plate. […] The positive control was the well in which enzyme and substrate were co-incubated, and the negative control was the well in which dilution buffer and substrate were co-incubated. The inhibition rate was calculated according to the following formula.

T1 sequence (P50750 whole entry): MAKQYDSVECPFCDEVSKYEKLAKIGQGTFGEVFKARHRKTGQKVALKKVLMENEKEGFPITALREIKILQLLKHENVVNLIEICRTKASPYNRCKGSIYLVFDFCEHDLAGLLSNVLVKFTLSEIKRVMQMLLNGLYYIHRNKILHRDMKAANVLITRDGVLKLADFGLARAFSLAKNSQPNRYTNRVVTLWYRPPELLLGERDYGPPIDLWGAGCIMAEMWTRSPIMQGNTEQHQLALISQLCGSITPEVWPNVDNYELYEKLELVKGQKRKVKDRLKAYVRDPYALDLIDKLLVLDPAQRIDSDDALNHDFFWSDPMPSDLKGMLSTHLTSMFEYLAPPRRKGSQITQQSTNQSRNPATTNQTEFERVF
T1 sequence (O60563 whole entry partner): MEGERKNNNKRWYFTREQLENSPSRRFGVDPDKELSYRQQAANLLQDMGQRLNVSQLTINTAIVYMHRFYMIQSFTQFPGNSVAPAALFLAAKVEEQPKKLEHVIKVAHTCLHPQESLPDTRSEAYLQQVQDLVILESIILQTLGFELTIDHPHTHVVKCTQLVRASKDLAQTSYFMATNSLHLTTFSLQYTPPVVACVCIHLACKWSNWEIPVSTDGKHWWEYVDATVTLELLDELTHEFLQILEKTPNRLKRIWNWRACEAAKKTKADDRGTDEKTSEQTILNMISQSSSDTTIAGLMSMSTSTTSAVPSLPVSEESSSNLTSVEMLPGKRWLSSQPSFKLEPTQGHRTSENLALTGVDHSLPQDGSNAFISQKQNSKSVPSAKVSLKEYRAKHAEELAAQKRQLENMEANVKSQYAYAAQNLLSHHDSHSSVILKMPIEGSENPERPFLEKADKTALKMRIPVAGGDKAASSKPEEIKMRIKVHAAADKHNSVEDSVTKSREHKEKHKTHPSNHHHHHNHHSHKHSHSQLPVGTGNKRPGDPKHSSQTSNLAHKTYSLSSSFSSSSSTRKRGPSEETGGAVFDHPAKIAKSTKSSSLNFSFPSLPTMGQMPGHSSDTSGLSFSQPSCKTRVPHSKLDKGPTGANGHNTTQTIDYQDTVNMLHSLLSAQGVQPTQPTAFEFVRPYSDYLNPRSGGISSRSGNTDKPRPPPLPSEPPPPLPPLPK

Regarding `[2H]C([2H])([2H])OCCNC1CCC(NC(=O)Nc2cc(-c3cnn4c3CC(C)(C)C4)c(Cl)cn2)CC1` (stereo not shown) [Example 58, 1-(5-chloro-4-(5,5-dimethyl-5,6-dihydro-4H-pyrrolo[1,2-b]pyrazol-3-yl)pyridin-2-yl)-3-((1r,4r)-4-((2-(methoxy-d3)ethyl)amino)cyclohexyl)urea], for the setting “compound 10 nM”, the inhibition at 0.01 µM stood at 65.1%. Further, the inhibition at 0.1 µM (compound 100 nM) was 98.2%.

Regarding `CCNC1CCC(NC(=O)Nc2cc(-c3cnn4c3CC(C)(C)C4)c(Cl)cn2)CC1` (stereo not shown) [Example 59, 1-(5-chloro-4-(5,5-dimethyl-5,6-dihydro-4H-pyrrolo[1,2-b]pyrazol-3-yl)pyridin-2-yl)-3-((1r,4r)-4-(ethylamino)cyclohexyl)urea], the inhibition at 0.01 µM (compound 10 nM) stood at 72%. Further, the inhibition at 0.1 µM (compound 100 nM) is 62%.

As for `CC(C)NC1CCC(NC(=O)Nc2cc(-c3cnn4c3CC(C)(C)C4)c(Cl)cn2)CC1` (stereo not shown) [Example 60, 1-(5-chloro-4-(5,5-dimethyl-5,6-dihydro-4H-pyrrolo[1,2-b]pyrazol-3-yl)pyridin-2-yl)-3-((1r,4r)-4-(isopropylamino)cyclohexyl)urea], the inhibition at 0.01 µM (compound 10 nM) was determined as 49%. Besides, where the note is “compound 100 nM”, the inhibition at 0.1 µM was determined as 87.3%.

As to `CC1(C)Cc2c(-c3cc(NC(=O)NC4CCC(NCCF)CC4)ncc3Cl)cnn2C1` (stereo not shown) [Example 61, 1-(5-chloro-4-(5,5-dimethyl-5,6-dihydro-4H-pyrrolo[1,2-b]pyrazol-3-yl)pyridin-2-yl)-3-((1r,4r)-4-((2-fluoroethyl)amino)cyclohexyl)urea], where the note is “compound 10 nM”, the inhibition at 0.01 µM is 58.3%. For the same molecule, the inhibition at 0.1 µM (compound 100 nM) stood at 85.1%.

Regarding `CC1(C)Cc2c(-c3cc(NC(=O)NC4CCC(NCCO)CC4)ncc3Cl)cnn2C1` (stereo not shown) [Example 62, 1-(5-chloro-4-(5,5-dimethyl-5,6-dihydro-4H-pyrrolo[1,2-b]pyrazol-3-yl)pyridin-2-yl)-3-((1r,4r)-4-((2-hydroxyethyl)amino)cyclohexyl)urea], the inhibition at 0.01 µM (compound 10 nM) is 54%. Moreover, the inhibition at 0.1 µM (compound 100 nM) was 90.9%.

Consider `CC1(C)Cc2c(-c3cc(NC(=O)NC4CCC(NC5COC5)CC4)ncc3Cl)cnn2C1` (stereo not shown) [Example 63], for which, under “compound 10 nM”, the inhibition at 0.01 µM turned out to be 40.2%. In addition, the inhibition at 0.1 µM (compound 100 nM) was 69.3%.

Take `CC1(C)Cc2c(-c3cc(NC(=O)NC4CCC(NC(=O)OC(C)(C)C)CC4)ncc3Cl)cnn2C1` (stereo not shown) [Example 64, tert-butyl (1s,4s)-4-(3-(5-chloro-4-(5,5-dimethyl-5,6-dihydro-4H-pyrrolo [1,2-b]pyrazol-3-yl)pyridin-2-yl)ureido)cyclohexylcarbamate]: the inhibition at 0.01 µM (compound 10 nM) was determined as 28%. The inhibition at 0.1 µM (compound 100 nM) was determined as 56%.

As to `CC1(C)Cc2c(-c3cc(NC(=O)NC4CCC(N)CC4)ncc3Cl)cnn2C1` (stereo not shown) [Example 65, 1-((1s,4s)-4-aminocyclohexyl)-3-(5-chloro-4-(5,5-dimethyl-5,6-dihydro-4H-pyrrolo[1,2-b]pyrazol-3-yl)pyridin-2-yl)urea], where the note is “compound 10 nM, 0.01 µM”, the “Inhibition rate at different concentrations (%) 10 nM” value stood at 58.0%. Moreover, where the note is “compound 100 nM, 0.1 µM”, the “Inhibition rate at different concentrations (%) 100 nM” value turned out to be 84.0%.

Consider `COCCNC1CCC(NC(=O)Nc2cc(-c3cnn4c3CC(C)(C)C4)c(Cl)cn2)CC1` (stereo not shown) [Example 66, 1-(5-chloro-4-(5,5-dimethyl-5,6-dihydro-4H-pyrrolo[1,2-b]pyrazol-3-yl)pyridin-2-yl)-3-((1s,4s)-4-((2-methoxyethyl)amino)cyclohexyl)urea], for which the inhibition at 0.01 µM (compound 10 nM) amounted to 57%. In addition, the inhibition at 0.1 µM (compound 100 nM) stood at 69%.

For `CC1(C)Cc2c(-c3cc(NC(=O)NC4CCNCC4)ncc3Cl)cnn2C1` [Example 68, 1-(5-chloro-4-(5,5-dimethyl-5,6-dihydro-4H-pyrrolo[1,2-b]pyrazol-3-yl)pyridin-2-yl)-3-(piperidin-4-yl)urea], the inhibition at 0.01 µM (compound 10 nM) worked out at 44%. Where the note is “compound 100 nM”, the inhibition at 0.1 µM is 89%.

For `CC1(C)Cc2c(-c3cc(NC(=O)NC4CCCNCC4)ncc3Cl)cnn2C1` (stereo not shown) [Example 69, 1-(azepan-4-yl)-3-(5-chloro-4-(5,5-dimethyl-5,6-dihydro-4H-pyrrolo[1,2-b]pyrazol-3-yl)pyridin-2-yl)urea], the inhibition at 0.01 µM (compound 10 nM) came to 33.8%. Further, the inhibition at 0.1 µM (compound 100 nM) amounted to 79.5%.

In the case of `CC1(C)Cc2c(-c3cc(NC(=O)NC4CCCC(N)CC4)ncc3Cl)cnn2C1` (stereo not shown) [Example 70, 1-(4-aminocycloheptyl)-3-(5-chloro-4-(5,5-dimethyl-5,6-dihydro-4H-pyrrolo[1,2-b]pyrazole-3-yl)pyridin-2-yl)urea], under “compound 10 nM”, the inhibition at 0.01 µM was determined as 40%. Besides, the inhibition at 0.1 µM (compound 100 nM) came to 83.7%.

Regarding `CC1(C)Cc2c(-c3cc(NC(=O)NCCCNC(=O)OC(C)(C)C)ncc3Cl)cnn2C1` [Example 71, tert-butyl (3-(3-(5-chloro-4-(5,5-dimethyl-5,6-dihydro-4H-pyrrolo[1,2-b]pyrazol-3-)pyridin-2-yl)ureido)propyl)carbamate], the inhibition at 0.01 µM (compound 10 nM) came out at 34%. The inhibition at 0.1 µM (compound 100 nM) was 64%.

With `CC1(C)Cc2c(-c3cc(NC(=O)NCCCN)ncc3Cl)cnn2C1` [Example 72, 1-(3-aminopropyl)-3-(5-chloro-4-(5,5-dimethyl-5,6-dihydro-4H-pyrrolo [1,2-b]pyrazol-3-yl)pyridin-2-yl)urea], under “compound 10 nM”, the inhibition at 0.01 µM was 45%. Besides, the inhibition at 0.1 µM (compound 100 nM) was determined as 69%.

Consider `CC1(C)Cc2c(-c3cc(NC(=O)N[C@@H]4CC[C@@H](N)C4)ncc3Cl)cnn2C1` [Example 73, 1-((1S,3S)-3-aminocyclopentyl)-3-(5-chloro-4-(5,5-dimethyl-5,6-dihydro-4H-pyrrole[1,2-b]pyrazole-3-yl)pyridin-2-yl)urea], for which the inhibition at 0.01 µM (compound 10 nM) came to 70%. Also, the inhibition at 0.1 µM (compound 100 nM) was 86%.

Consider `CC(=O)NC1CC(NC(=O)Nc2cc(-c3cnn4c3CC(C)(C)C4)c(Cl)cn2)C1` (stereo not shown) [Example 75, N-((1r,3r)-3-(3-(5-chloro-4-(5,5-dimethyl-5,6-dihydro-4H-pyrrolo[1,2-b]pyrazol-3-yl)pyridin-2-yl)ureido)cyclobutyl)acetamide], for which, under “compound 10 nM”, the inhibition at 0.01 µM was 51%. The inhibition at 0.1 µM (compound 100 nM) is 83%.

As for `CC1(C)Cc2c(-c3cc(NC(=O)NC4CCCC(NC(=O)OC(C)(C)C)C4)ncc3Cl)cnn2C1` (stereo not shown) [Example 76, tert-butyl (3-(3-(5-chloro-4-(5,5-dimethyl-5,6-dihydro-4H-pyrrolo[1,2-b]pyrazol-3-yl)pyridin-2-yl)ureido)cyclohexyl)carbamate], the inhibition at 0.01 µM (compound 10 nM) was 25%. Also, the inhibition at 0.1 µM (compound 100 nM) is 91%.

On to `CC1(C)Cc2c(-c3cc(NC(=O)NC4CCCC(N)C4)ncc3Cl)cnn2C1` (stereo not shown) [Example 77, 1-(3-aminocyclohexyl)-3-(5-chloro-4-(5,5-dimethyl-5,6-dihydro-4H-pyrrolo[1,2-b]pyrazol-3-yl)pyridin-2-yl)urea], for which the inhibition at 0.01 µM (compound 10 nM) amounted to 60.3%. Besides, where the note is “compound 100 nM”, the inhibition at 0.1 µM was 92%.

For `CCNC1CCCC(NC(=O)Nc2cc(-c3cnn4c3CC(C)(C)C4)c(Cl)cn2)C1` (stereo not shown) [Example 78, 1-(5-chloro-4-(5,5-dimethyl-5,6-dihydro-4H-pyrrolo[1,2-b]pyrazol-3-yl)pyridin-2-yl)-3-(3-(ethylamino)cyclohexyl)urea], the inhibition at 0.01 µM (compound 10 nM) stood at 68%. Besides, the inhibition at 0.1 µM (compound 100 nM) came to 80%.

As to `CC(=O)NC1CCCC(NC(=O)Nc2cc(-c3cnn4c3CC(C)(C)C4)c(Cl)cn2)C1` (stereo not shown) [Example 79, N-(3-(3-(5-chloro-4-(5,5-dimethyl-5,6-dihydro-4H-pyrrolo[1,2-b]pyrazol-3-yl)pyridin-2-yl)ureido)cyclohexyl)acetamide], for the setting “compound 10 nM”, the inhibition at 0.01 µM worked out at 53%. Also, the inhibition at 0.1 µM (compound 100 nM) came out at 87%.
